From the supplement of paper PMC10627819

Key:
[1] = tested on: B. subtilis 168; assay: fitness (endpoint OD595 vs no drug) (fraction); higher = more growth
How it was run: (§1)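 Fitness compares growth at the stationary-phase transition with the robust mean of no-drug control wells, as a ratio of optical densities. The ratio is capped at 1. Wells of 384-well plates held 30 µl, or 55 µl for S. pneumoniae, inoculated at OD595 0.01. Readings at OD595 every 30 min for 14 h at 37 °C were corrected against the first reading.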

[2] = tested on: S. aureus DSM 20231; assay: as above
How it was run: as §1

[3] = tested on: S. aureus Newman; assay: as above
How it was run: as §1

[4] = tested on: S. pneumoniae D39V; assay: as above
How it was run: as §1

[5] = tested on: B. subtilis 168; assay: Bliss interaction score (quartile over a dose matrix) (fitness difference); higher = more antagonism (negative = synergy)
How it was run: (§2)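 Quartiles of the Bliss score were taken over technical, biological and donor/recipient replicates. That score is observed fitness minus the product of the single-drug fitness values, which were inferred from combination data. Fitness itself is OD595 at entry into stationary phase divided by the plate's robust no-drug mean, with a cap at 1.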

[6] = tested on: S. aureus DSM 20231; assay: as above
How it was run: as §2

[7] = tested on: S. aureus Newman; assay: as above
How it was run: as §2

[8] = tested on: S. pneumoniae D39V; assay: as above
How it was run: as §2
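Wherever Bliss interaction score (quartile over a dose matrix) is given: first quartile when negative (synergy) and third quartile when positive (antagonism).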

CCC[C@@H]1C[C@@H](C(=O)N[C@@H]([C@H]2O[C@H](SC)[C@H](O)[C@@H](O)[C@H]2O)[C@H](C)Cl)N(C)C1 [Clindamycin] + COc1c(N2C[C@@H]3CCCN[C@@H]3C2)c(F)cc2c(=O)c(C(=O)O)cn(C3CC3)c12 [Moxifloxacin]
fitness, one replicate
Conditions | first compound 0.0039 µg/mL | first compound 0.0078 µg/mL | first compound 0.0156 µg/mL | first compound 0.0312 µg/mL | first compound 0.0625 µg/mL | first compound 0.125 µg/mL
[1], partner 0.0312 µg/mL | 0.73 | 0.575 | 0.5 | – | – | –
[1], partner 0.0625 µg/mL | 0.061 | 0.05 | 0.0579 | – | – | –
[1], partner 0.125 µg/mL | 0.0192 | 0.0118 | 0.0291 | – | – | –
[2], partner 0.06 µg/mL | – | – | – | 0.628 | 0.628 | 0.109
[2], partner 0.12 µg/mL | – | – | – | 0.515 | 0.516 | 0.0784

Conditions | fitness
[1], first compound 0.0625 µg/mL, partner 0.0312 µg/mL | 0.0693
[1], first compound 0.0625 µg/mL, partner 0.0625 µg/mL | 0.0631
[1], first compound 0.0625 µg/mL, partner 0.125 µg/mL | 0.046
[1], first compound 0.0625 µg/mL, partner 2 µg/mL | 0.0362
[1], first compound 0.0625 µg/mL, partner 4 µg/mL | 0.0401
[1], first compound 0.0625 µg/mL, partner 8 µg/mL | 0.0456
[1], first compound 0.125 µg/mL, partner 0.0312 µg/mL | 0.0619
[1], first compound 0.125 µg/mL, partner 0.0625 µg/mL | 0.0693
[1], first compound 0.125 µg/mL, partner 0.125 µg/mL | 0.0534
[1], first compound 0.125 µg/mL, partner 2 µg/mL | 0.0368
[1], first compound 0.125 µg/mL, partner 4 µg/mL | 0.0309
[1], first compound 0.125 µg/mL, partner 8 µg/mL | 0.0299
[1], first compound 0.25 µg/mL, partner 0.0312 µg/mL | 0.0478
[1], first compound 0.25 µg/mL, partner 0.0625 µg/mL | 0.0597
[1], first compound 0.25 µg/mL, partner 0.125 µg/mL | 0.0484
[1], first compound 0.25 µg/mL, partner 2 µg/mL | 0.0444
[1], first compound 0.25 µg/mL, partner 4 µg/mL | 0.0401
[1], first compound 0.25 µg/mL, partner 8 µg/mL | 0.0192
[2], first compound 0.0625 µg/mL, partner 0.0075 µg/mL | 0.0874
[2], first compound 0.0625 µg/mL, partner 0.015 µg/mL | 0.0867
[2], first compound 0.125 µg/mL, partner 0.0075 µg/mL | 0.0621
[2], first compound 0.125 µg/mL, partner 0.015 µg/mL | 0.0276
[2], first compound 0.125 µg/mL, partner 0.03 µg/mL | 0.0423
[3], first compound 0.0312 µg/mL, partner 0.0075 µg/mL | 0.63
[3], first compound 0.0312 µg/mL, partner 0.015 µg/mL | 0.553
[3], first compound 0.0625 µg/mL, partner 0.015 µg/mL | 0.361
[3], first compound 0.0625 µg/mL, partner 0.03 µg/mL | 0.251
[3], first compound 0.125 µg/mL, partner 0.0075 µg/mL | 0.111
[3], first compound 0.125 µg/mL, partner 0.015 µg/mL | 0.0621
[3], first compound 0.125 µg/mL, partner 0.03 µg/mL | 0.0456
[4], first compound 0.0125 µg/mL, partner 0.0312 µg/mL | 0.182
[4], first compound 0.0125 µg/mL, partner 0.0625 µg/mL | 0.0996
[4], first compound 0.0125 µg/mL, partner 0.125 µg/mL | 0.0702
[4], first compound 0.015 µg/mL, partner 0.005 µg/mL | 0.87
[4], first compound 0.015 µg/mL, partner 0.01 µg/mL | 0.932
[4], first compound 0.015 µg/mL, partner 0.02 µg/mL | 0.88
[4], first compound 0.025 µg/mL, partner 0.0312 µg/mL | 0.13
[4], first compound 0.025 µg/mL, partner 0.0625 µg/mL | 0.107
[4], first compound 0.025 µg/mL, partner 0.125 µg/mL | 0.067
[4], first compound 0.03 µg/mL, partner 0.005 µg/mL | 0.778
[4], first compound 0.03 µg/mL, partner 0.01 µg/mL | 0.798
[4], first compound 0.03 µg/mL, partner 0.02 µg/mL | 0.744
[4], first compound 0.05 µg/mL, partner 0.0312 µg/mL | 0.0658
[4], first compound 0.05 µg/mL, partner 0.0625 µg/mL | 0.0748
[4], first compound 0.05 µg/mL, partner 0.125 µg/mL | 0.0719
[4], first compound 0.06 µg/mL, partner 0.005 µg/mL | 0.627
[4], first compound 0.06 µg/mL, partner 0.01 µg/mL | 0.674
[4], first compound 0.06 µg/mL, partner 0.02 µg/mL | 0.606

Conditions | Bliss interaction score
[5] | 0.041
[6] | 0.0751
[7] | 0.0705
[8] | 0.0859

CCC[C@@H]1C[C@@H](C(=O)N[C@@H]([C@H]2O[C@H](SC)[C@H](O)[C@@H](O)[C@H]2O)[C@H](C)Cl)N(C)C1 [Clindamycin] + COc1ccc(C[C@H](N)C(=O)N[C@H]2[C@@H](O)[C@H](n3cnc4c(N(C)C)ncnc43)O[C@@H]2CO)cc1 [Puromycin]
one replicate
Conditions | fitness
[1], first compound 0.0039 µg/mL, partner 0.39 µg/mL | 0.956
[1], first compound 0.0039 µg/mL, partner 0.78 µg/mL | 0.946
[1], first compound 0.0039 µg/mL, partner 1.56 µg/mL | ≥ 1
[1], first compound 0.0078 µg/mL, partner 0.39 µg/mL | 0.853
[1], first compound 0.0078 µg/mL, partner 0.78 µg/mL | 0.876
[1], first compound 0.0078 µg/mL, partner 1.56 µg/mL | 0.92
[1], first compound 0.0156 µg/mL, partner 0.39 µg/mL | 0.826
[1], first compound 0.0156 µg/mL, partner 0.78 µg/mL | 0.907
[1], first compound 0.0156 µg/mL, partner 1.56 µg/mL | 0.894
[2], first compound 0.0312 µg/mL, partner 3.12 µg/mL | 0.487
[2], first compound 0.0312 µg/mL, partner 6.24 µg/mL | 0.14
[2], first compound 0.0625 µg/mL, partner 3.12 µg/mL | 0.212
[2], first compound 0.0625 µg/mL, partner 6.24 µg/mL | 0.0867
[2], first compound 0.125 µg/mL, partner 3.12 µg/mL | 0.0522
[2], first compound 0.125 µg/mL, partner 6.24 µg/mL | 0.0492
[4], first compound 0.015 µg/mL, partner 1 µg/mL | 0.746
[4], first compound 0.015 µg/mL, partner 2 µg/mL | 0.84
[4], first compound 0.015 µg/mL, partner 4 µg/mL | 0.583
[4], first compound 0.03 µg/mL, partner 1 µg/mL | 0.591
[4], first compound 0.03 µg/mL, partner 2 µg/mL | 0.625
[4], first compound 0.03 µg/mL, partner 4 µg/mL | 0.218
[4], first compound 0.06 µg/mL, partner 1 µg/mL | 0.177
[4], first compound 0.06 µg/mL, partner 2 µg/mL | 0.102
[4], first compound 0.06 µg/mL, partner 4 µg/mL | 0.114

Conditions | fitness
[1], first compound 0.0625 µg/mL, partner 0.39 µg/mL | 0.534
[1], first compound 0.0625 µg/mL, partner 0.78 µg/mL | 0.52
[1], first compound 0.0625 µg/mL, partner 1.56 µg/mL | 0.564
[1], first compound 0.125 µg/mL, partner 0.39 µg/mL | 0.378
[1], first compound 0.125 µg/mL, partner 0.78 µg/mL | 0.355
[1], first compound 0.125 µg/mL, partner 1.56 µg/mL | 0.366
[1], first compound 0.25 µg/mL, partner 0.39 µg/mL | 0.347
[1], first compound 0.25 µg/mL, partner 0.78 µg/mL | 0.335
[1], first compound 0.25 µg/mL, partner 1.56 µg/mL | 0.344
[2], first compound 0.0625 µg/mL, partner 1.56 µg/mL | 0.179
[2], first compound 0.125 µg/mL, partner 0.39 µg/mL | 0.0343
[2], first compound 0.125 µg/mL, partner 0.78 µg/mL | 0.0367
[2], first compound 0.125 µg/mL, partner 1.56 µg/mL | 0.0565
[3], first compound 0.0312 µg/mL, partner 0.39 µg/mL | 0.741
[3], first compound 0.0312 µg/mL, partner 0.78 µg/mL | 0.717
[3], first compound 0.0312 µg/mL, partner 1.56 µg/mL | 0.713
[3], first compound 0.0625 µg/mL, partner 0.39 µg/mL | 0.395
[3], first compound 0.0625 µg/mL, partner 0.78 µg/mL | 0.412
[3], first compound 0.0625 µg/mL, partner 1.56 µg/mL | 0.326
[3], first compound 0.125 µg/mL, partner 0.39 µg/mL | 0.101
[3], first compound 0.125 µg/mL, partner 0.78 µg/mL | 0.115
[3], first compound 0.125 µg/mL, partner 1.56 µg/mL | 0.13
[4], first compound 0.0125 µg/mL, partner 1 µg/mL | 0.766
[4], first compound 0.0125 µg/mL, partner 2 µg/mL | 0.712
[4], first compound 0.0125 µg/mL, partner 4 µg/mL | 0.473
[4], first compound 0.025 µg/mL, partner 1 µg/mL | 0.533
[4], first compound 0.025 µg/mL, partner 2 µg/mL | 0.475
[4], first compound 0.025 µg/mL, partner 4 µg/mL | 0.33
[4], first compound 0.05 µg/mL, partner 1 µg/mL | 0.261
[4], first compound 0.05 µg/mL, partner 2 µg/mL | 0.192
[4], first compound 0.05 µg/mL, partner 4 µg/mL | 0.11

Conditions | Bliss interaction score
[5] | 0.0463
[6] | -0.0327
[7] | -0.0646
[8] | -0.123
